# Experimental data published in patent US11058678B2 (Enanta Pharmaceuticals, Inc., priority 2018, dated 2021).
# How the values were obtained:
# [1] = system: HBV (2.2.15 cells); assay: Antiviral activity in 2.2.15 cells: reduction of viral product accumulation (qPCR of lysates, HBsAg or HBeAg ELISA); assay type: cell-based, hepatitis B virus (HBV); conditions: Hepatitis B virus, 120 h, day 5 post treatment, 50% reduction of viral product accumulation in lysates or supernatants vs no drug controls, readout (qPCR, HBsAg, HBeAg) not specified
# Method in brief: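 HBV-producing 2.2.15 cells, 35,000/well, treated with 5-fold serial compound dilutions at 0.5% final DMSO for 5 days. Lysate HBV DNA by qPCR or supernatant HBsAg/HBeAg by ELISA; EC50 is 50% reduction versus no-drug control, binned A<0.1 μM, B 0.1-1 μM, C>1 μM.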
# [2] = Compound induced cellular toxicity in HepG2 cells (ATPlite 1 Step); assay type: cell-based; conditions: human, three days, 50% reduction of total ATP levels vs no drug controls
# Protocol: At day 3, post seeding cells are treated with ATPlite 1 Step according to the manufacturer's instructions.
SMILES,EC50 [1],CC50 at 3 days [2]
"COCCCOc1cc2c(cc1-c1cccc(F)c1F)-c1cc(=O)c(C(=O)O)cn1[C@H](C(C)(C)C)C2 [Example 23, (S)-6-(tert-butyl)-10-(2,3-difluorophenyl)-9-(3-methoxypropoxy)-2-oxo-6,7-dihydro-2H-pyrido[2,1-a]isoquinoline-3-carboxylic Acid]",100 to 1000 nM,> 25000 nM
"COCCCOc1cc2c(cc1-c1ccc(OC)cc1)-c1cc(=O)c(C(=O)O)cn1[C@H](C(C)(C)C)C2 [Example 17, (S)-6-(tert-butyl)-10-(4-methoxyphenyl)-9-(3-methoxypropoxy)-2-oxo-6,7-dihydro-2H-pyrido[2,1-a]isoquinoline-3-carboxylic Acid]",< 100 nM,10000 to 25000 nM
"CC(C)(C)[C@@H]1Cc2c(cc(-c3ccsc3)c3c2CCO3)-c2cc(=O)c(C(=O)O)cn21 [Example 71, (S)-5-(tert-butyl)-9-oxo-12-(thiophen-3-yl)-2,3,4,9-tetrahydro-5H-furo[3,2-f]pyrido[2,1-a]isoquinoline-8-carboxylic Acid]",< 100 nM,< 10000 nM
"COCCCOc1cc2c(cc1-c1ccccc1F)-c1cc(=O)c(C(=O)O)cn1[C@H](C(C)(C)C)C2 [Example 13, (S)-6-(tert-butyl)-10-(2-fluorophenyl)-9-(3-methoxypropoxy)-2-oxo-6,7-dihydro-2H-pyrido[2,1-a]isoquinoline-3-carboxylic Acid]",< 100 nM,10000 to 25000 nM
"COCCCOc1cc2c(cc1-c1cccc(OC)c1)-c1cc(=O)c(C(=O)O)cn1[C@H](C(C)(C)C)C2 [Example 16, (S)-6-(tert-butyl)-10-(3-methoxyphenyl)-9-(3-methoxypropoxy)-2-oxo-6,7-dihydro-2H-pyrido[2,1-a]isoquinoline-3-carboxylic Acid]",< 100 nM,10000 to 25000 nM
"COCCCOc1cc2c(cc1-c1cnco1)-c1cc(=O)c(C(=O)O)cn1[C@H]1[C@@H]2CCC1(C)C [Example 63, (3aS,12bR)-11-(3-methoxypropoxy)-3,3-dimethyl-10-(oxazol-5-yl)-7-oxo-1,2,3,3a,7,12b-hexahydrocyclopenta[c]pyrido[2,1-a]isoquinoline-6-carboxylic Acid]",< 100 nM,10000 to 25000 nM
"COCCCOc1cc2c(cc1-c1cc3ccccc3o1)-c1cc(=O)c(C(=O)O)cn1[C@H](C(C)(C)C)C2 [Example 9, (S)-10-(benzofuran-2-yl)-6-(tert-butyl)-9-(3-methoxypropoxy)-2-oxo-6,7-dihydro-2H-pyrido[2,1-a]isoquinoline-3-carboxylic Acid]",< 100 nM,> 25000 nM
"COCCCOc1cc2c(cc1-c1c(C)oc3ccccc13)-c1cc(=O)c(C(=O)O)cn1[C@H](C(C)(C)C)C2 [Example 21, (S)-6-(tert-butyl)-9-(3-methoxypropoxy)-10-(2-methylbenzofuran-3-yl)-2-oxo-6,7-dihydro-2H-pyrido[2,1-a]isoquinoline-3-carboxylic Acid]",100 to 1000 nM,> 25000 nM
"COCCCOc1cc2c(cc1C1=COCC1)-c1cc(=O)c(C(=O)O)cn1[C@H](C(C)(C)C)C2 [Example 46, (S)-6-(tert-butyl)-10-(4,5-dihydrofuran-3-yl)-9-(3-methoxypropoxy)-2-oxo-6,7-dihydro-2H-pyrido[2,1-a]isoquinoline-3-carboxylic Acid]",< 100 nM,> 25000 nM
"COCCCOc1cc2c(cc1-c1cnco1)-c1cc(=O)c(C(=O)O)cn1[C@H](C(C)(C)C)C2 [Example 6, (S)-6-(tert-butyl)-9-(3-methoxypropoxy)-10-(oxazol-5-yl)-2-oxo-6,7-dihydro-2H-pyrido[2,1-a]isoquinoline-3-carboxylic Acid]",< 100 nM,> 25000 nM
"CC(C)(C)[C@@H]1Cc2c(cc(-c3cccc(F)c3)c3c2CCO3)-c2cc(=O)c(C(=O)O)cn21 [Example 65, (S)-5-(tert-butyl)-12-(3-fluorophenyl)-9-oxo-2,3,4,9-tetrahydro-5H-furo[3,2-f]pyrido[2,1-a]isoquinoline-8-carboxylic Acid]",< 100 nM,< 10000 nM
"COCCCOc1cc2c(cc1-c1ccc3c(c1)OCCN3C)-c1cc(=O)c(C(=O)O)cn1[C@H](C(C)(C)C)C2 [Example 24, (S)-6-(tert-butyl)-9-(3-methoxypropoxy)-10-(4-methyl-3,4-dihydro-2H-benzo[b][1,4]oxazin-7-yl)-2-oxo-6,7-dihydro-2H-pyrido[2,1-a]isoquinoline-3-carboxylic Acid]",100 to 1000 nM,> 25000 nM
"COCCCOc1cc2c(cc1-c1ccc(F)cc1F)-c1cc(=O)c(C(=O)O)cn1[C@H](C(C)(C)C)C2 [Example 22, (S)-6-(tert-butyl)-10-(2,4-difluorophenyl)-9-(3-methoxypropoxy)-2-oxo-6,7-dihydro-2H-pyrido[2,1-a]isoquinoline-3-carboxylic Acid]",100 to 1000 nM,> 25000 nM
"COCCCOc1cc2c(cc1-c1ccccc1)-c1cc(=O)c(C(=O)O)cn1[C@H](C(C)(C)C)C2 [Example 3, (S)-6-(tert-butyl)-9-(3-methoxypropoxy)-2-oxo-10-phenyl-6,7-dihydro-2H-pyrido[2,1-a]isoquinoline-3-carboxylic Acid]",< 100 nM,< 10000 nM
"COCCCOc1cc2c(cc1-c1cnc3ccccc3c1)-c1cc(=O)c(C(=O)O)cn1[C@H](C(C)(C)C)C2 [Example 12, (S)-6-(tert-butyl)-9-(3-methoxypropoxy)-2-oxo-10-(quinolin-3-yl)-6,7-dihydro-2H-pyrido[2,1-a]isoquinoline-3-carboxylic Acid]",< 100 nM,> 25000 nM
"CC(C)(C)[C@@H]1Cc2c(cc(-c3ccc(F)cc3)c3c2CCO3)-c2cc(=O)c(C(=O)O)cn21 [Example 62, (S)-5-(tert-butyl)-12-(4-fluorophenyl)-9-oxo-2,3,4,9-tetrahydro-5H-furo[3,2-f]pyrido[2,1-a]isoquinoline-8-carboxylic Acid]",< 100 nM,< 10000 nM
"COCCCOc1cc2c(cc1-c1coc3ccccc13)-c1cc(=O)c(C(=O)O)cn1[C@H](C(C)(C)C)C2 [Example 10, (S)-10-(benzofuran-3-yl)-6-(tert-butyl)-9-(3-methoxypropoxy)-2-oxo-6,7-dihydro-2H-pyrido[2,1-a]isoquinoline-3-carboxylic Acid]",< 100 nM,> 25000 nM
"CC(C)(C)[C@@H]1Cc2c(cc(N3CC(F)(F)C3)c3c2CCO3)-c2cc(=O)c(C(=O)O)cn21 [Example 30, (S)-5-(tert-butyl)-12-(3,3-difluoroazetidin-1-yl)-9-oxo-2,3,4,9-tetrahydro-5H-furo[3,2-f]pyrido[2,1-a]isoquinoline-8-carboxylic Acid]",< 100 nM,> 25000 nM
"COCCCOc1cc2c(cc1-c1ccco1)-c1cc(=O)c(C(=O)O)cn1[C@H](C(C)(C)C)C2 [Example 7, (S)-6-(tert-butyl)-10-(furan-2-yl)-9-(3-methoxypropoxy)-2-oxo-6,7-dihydro-2H-pyrido[2,1-a]isoquinoline-3-carboxylic Acid]",< 100 nM,> 25000 nM
"COCCCOc1cc2c(cc1-c1nc3ccccc3o1)-c1cc(=O)c(C(=O)O)cn1[C@H](C(C)(C)C)C2 [Example 25, (S)-10-(benzo[d]oxazol-2-yl)-6-(tert-butyl)-9-(3-methoxypropoxy)-2-oxo-6,7-dihydro-2H-pyrido[2,1-a]isoquinoline-3-carboxylic Acid]",100 to 1000 nM,> 25000 nM
